Results taken from patent US20230065953A1, “NOVEL HETEROARYL-TRIAZOLE COMPOUNDS AS PESTICIDES” (Bayer Aktiengesellschaft, priority 2019, published 2023).

Assays:
Format in all cases: in vivo
[1] = system: adult cat fleas (Ctenocephalides felis); assay: Ctenocephalides felis in-vitro contact test, adult cat flea; conditions: 5 μg/cm^2 (=500 g/ha), after 48 hours
Experimental: Ctenocephalides felis—In-Vitro Contact Tests Adult Cat Flea
(§1) 9 mg compound is solved in 1 mL acetone and diluted with acetone to the desired concentration. 250 μL of the test solution is filled in 25 mL glass test tubes and homogeneously distributed on the inner walls by rotation and tilting on a shaking device (2 h at 30 rpm). With a compound concentration of 900 ppm, an inner surface of 44.7 cm^2 and a homogeneous distribution, a dose of 5 μg/cm^2 is achieved.
After the solvent has evaporated, each test tube is filled with 5-10 adult cat fleas (Ctenocephalides felis), closed with a perforated lid and incubated in a lying position at room temperature and relative humidity. After 48 hours efficacy is determined. The fleas are patted on the ground of the tubes and are incubated on a heating plate at 45-50° C. for at most 5 minutes. Immotile or uncoordinated moving fleas, which are not able to escape the heat by climbing upwards, are marked as dead or moribund.
An efficacy of 100% means all fleas are dead or moribund; 0% means no fleas are dead or moribund.

[2] = system: larvae of the banded cucumber beetle (Diabrotica balteata); assay: Diabrotica balteata spray test; conditions: 168 h, 100 g/ha (=32 μg/well), wheat seeds, after 7 days, read-out: efficacy (seedling growth)
In short: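 Efficacy in % was read 7 days after infesting with 10-20 larvae per unit. Before infestation, 1-day-germinated wheat seedlings (5 per well) were sprayed with the active ingredient, formulated in acetone and dimethylformamide plus emulsifier and diluted with water containing emulsifier.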

[3] = system: Rhipicephalus microplus larvae (strain Parkhurst, resistant against synthetic pyrethroids); assay: Rhipicephalus (Boophilus) microplus in-vitro contact test, larval cattle tick; conditions: 5 μg/cm^2 (=500 g/ha), after 48 hours, read-out: efficacy (larvae dead or moribund)
Experimental: Rhipicephalus (Boophilus) Microplus—In-Vitro Contact Tests Larval Cattle Tick (Strain Parkhurst, Resistant Against Synthetic Pyrethroids)
as §1
After the solvent has evaporated, each test tube is filled with 20-50 cattle tick larvae (Rhipicephalus microplus), closed with a perforated lid and incubated in a horizontal position at 85% relative humidity and 27° C. in an incubator. After 48 hours efficacy is determined. The larvae are patted on the ground of the tubes and negative geotactic behavior is recorded.
An efficacy of 100% means all larvae are dead or moribund; 0% means no larvae are dead or moribund.

[4] = system: fall armyworm larvae (Spodoptera frugiperda); assay: Spodoptera frugiperda spray test (maize leaf sections); conditions: 168 h
In short: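 Percent kill of Spodoptera frugiperda caterpillars read at day 7. Larvae placed on dried Zea mays leaf pieces previously sprayed with test preparation, made from acetone plus DMF and diluted with emulsifier-containing water (1000 ppm).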

[5] = system: adult unfed cat fleas (Ctenocephalides felis); assay: Ctenocephalides felis oral test; conditions: 48 h
Experimental: Ctenocephalides felis—Oral Test
(§2) Solvent: dimethyl sulfoxide
To produce a suitable preparation of active compound, 10 mg of active compound are dissolved in 0.5 mL solvent, and the concentrate is diluted with cattle blood to the desired concentration.
Approximately 20 adult unfed cat fleas (Ctenocephalides felis) are placed in flea chambers. The blood chamber, sealed with parafilm on the bottom, are filled with cattle blood supplied with compound solution and placed on the gauze covered top of the flea chamber, so that the fleas are able to suck the blood. The blood chamber is heated to 37° C. whereas the flea chamber is kept at room temperature.
After 2 days mortality in % is determined. 100% means all the fleas have been killed; 0% means none of the fleas have been killed.

[6] = system: adult flies Musca domestica strain WHO-N; assay: Musca domestica test (MUSCDO surface treatment & contact assay); conditions: 24 hours after contact, read-out: efficacy (mortality); for mortality at 20 mg/m2: surface concentration 20 mg/m^2, 30 min exposure; for mortality at 4 mg/m2: surface concentration 4 mg/m^2, 30 min exposure
Experimental: Musca domestica Test (MUSCDO Surface Treatment & Contact Assay) • Solvent: Aceton+2000 ppm rapeseed oil methyl ester (RME)
(§3) In order to produce a sufficient, active ingredient containing solution it is necessary to solve the test compound in the solvent-mix (acetone at 2 mg/ml/RME 2000 ppm). This solution is pipetted onto a glazed tile and after evaporation of the acetone, adult flies of the species Musca domestica strain WHO-N are placed onto the dried surface. The exposure time is 30 minutes.
(§4) Mortality in percent (%) is determined 24 hours after contact of the insects to the treated surface. 100% mortality means that all tested insects are dead, whereas 0% means that no insect died.

[7] = system: adult engorged female ticks (Rhipicephalus microplus); assay: Rhipicephalus (Boophilus) microplus injection test; conditions: 168 h, 4 μg/animal, egg deposition after 7 days, read-out: efficacy (infertile eggs)
Experimental: Rhipicephalus (Boophilus) Microplus—Injection Test
as §2
To produce a suitable preparation of active compound, 10 mg of active compound are dissolved in 0.5 mL solvent, and the concentrate is diluted with solvent to the desired concentration.
Five adult engorged female ticks (Rhipicephalus microplus) are injected with 1 μL compound solution into the abdomen. The ticks are transferred into replica plates and incubated in a climate chamber.
After 7 days egg deposition of fertile eggs is monitored. Eggs where fertility is not visible are stored in a climate chamber till hatching after about 42 days. An efficacy of 100% means all eggs are infertile; 0% means all eggs are fertile.

[8] = system: green peach aphid (Myzus persicae); assay: Myzus persicae oral test; conditions: 120 h
Experimental: Myzus persicae—oral test • Solvent: 100 parts by weight acetone
To produce a suitable preparation of active compound, 1 part by weight of active compound is mixed with the stated amount of solvent, and the concentrate is diluted with water to the desired concentration. 50 μL compound solution is filled in microtiter plates and 150 μL IPL41 insect medium (33%+15% sugar) is added to obtain a total volume of 200 μL per well. Afterwards the plates are sealed with parafilm through which a mixed population of the green peach aphid (Myzus persicae) can suck on the compound preparation.
(§5) After 5 days mortality in % is determined. 100% means all aphids have been killed and 0% means none of the aphids have been killed.

[9] = system: adult mosquitoes Aedes aegypti strain MONHEIM; assay: Aedes aegypti test (AEDSAE surface treatment & contact assay); conditions: 24 hours after contact, read-out: efficacy (mortality); for mortality at 4 mg/m2: surface concentration 4 mg/m^2, 30 min exposure; for mortality at 20 mg/m2: surface concentration 20 mg/m^2, 30 min exposure
Experimental: Aedes aegypti test (AEDSAE surface treatment & contact assay) • Solvent: Aceton+2000 ppm rapeseed oil methyl ester (RME)
as §3, with “mosquitoes” for “flies”, “Aedes aegypti” for “Musca domestica”, “MONHEIM” for “WHO-N”
as §4

[10] = system: green peach aphid (Myzus persicae); assay: Myzus persicae spray test; conditions: foliar, 120 h, Chinese cabbage leaf disks, after 5 days
Experimental: Myzus persicae—Spray Test • Solvent: 78.0 parts by weight acetone • 1.5 parts by weight dimethylformamide • Emulsifier: alkylarylpolyglycol ether
To produce a suitable preparation of active compound, 1 part by weight of active compound is mixed with the stated amount of solvents and is diluted with water, containing an emulsifier concentration of 1000 ppm, to the desired concentration. Further test concentrations are prepared by dilution with emulsifier containing water.
Chinese cabbage (Brassica pekinensis) leaf disks infected with all instars of the green peach aphid (Myzus persicae), are sprayed with a preparation of the active ingredient of the desired concentration.
as §5

[11] = system: larvae of the southern green stink bug (Nezara viridula); assay: Nezara viridula spray test; conditions: in Hordeum vulgare, 96 h
In short: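 Mortality (%) of stink bug larvae on treated barley (Hordeum vulgare) was scored 4 days after infestation. Test solutions came from an acetone/DMF concentrate diluted with water containing 1000 ppm emulsifier and were sprayed onto plants before larvae were added.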

| Compound | efficacy (fleas dead or moribund) [1] [%] | pest or weed control at 32 µg/disc, 100 g/ha [2] [%] | pest or weed control at 5 µg/cm2 [3] [%] | mortality at 100 g/ha [4] [%] | mortality at 100 ppm [5] [%] | mortality at 20 mg/m2 [6] [%] | pest or weed control at 0.004 mg [7] [%] | mortality at 4 ppm [8] [%] | mortality at 4 mg/m2 [9] [%] | mortality at 20 mg/m2 [9] [%] | mortality at 4 mg/m2 [6] [%] | mortality at 100 g/ha [10] [%] | mortality at 500 g/ha [11] [%] | mortality at 100 g/ha [11] [%] |
| --- | --- | --- | --- | --- | --- | --- | --- | --- | --- | --- | --- | --- | --- | --- |
| CC(NC(=O)c1cc(Cl)cc(OC(F)(F)F)c1)c1ncnn1-c1ncc(C#N)s1 (centres unmarked) [I-28] | 100 | 100 | 100 | 100 | – | – | – | – | – | – | – | – | – | – |
| CC(NC(=O)c1cc(C(F)F)cc(C(F)F)c1)c1ncnn1-c1ncc(C#N)s1 (centres unmarked) [I-33] | 80 | 100 | 90 | 100 | 100 | 80 to 100 | 100 | 100 | 80 to 100 | 80 to 100 | – | – | – | – |
| CC(NC(=O)c1cc(OC(F)(F)F)cc(S(C)(=O)=O)c1)c1ncnn1-c1ncc(C#N)s1 (centres unmarked) [I-37] | 80 | 100 | – | 100 | 100 | – | 100 | 100 | – | – | – | – | – | – |
| C[C@H](NC(=O)c1cc(Br)cc(OC(F)F)c1)c1ncnn1-c1ncc(C#N)s1 [I-39] | 80 | 100 | 90 | 100 | 100 | 80 to 100 | 100 | 100 | – | 80 to 100 | 90 to 100 | – | – | – |
| C[C@H](NC(=O)c1cc(Br)cc(C(C)(F)F)c1)c1ncnn1-c1ncc(C#N)s1 [I-47] | – | 100 | 90 | 100 | – | 80 to 100 | – | – | 80 to 100 | 80 to 100 | 90 to 100 | 90 | – | – |
| C[C@H](NC(=O)c1cc(Cl)cc(C2(C#N)CC2)c1)c1ncnn1-c1ncc(C#N)s1 [I-52] | – | 100 | – | 100 | – | 80 to 100 | – | – | – | 80 to 100 | 90 to 100 | 100 | 100 | – |
| Cc1nc([C@H](C)NC(=O)c2cc(Br)cc(C#N)c2)n(-c2ncc(C(=O)N(C)CC#N)s2)n1 [I-75] | 90 | 100 | 90 | – | – | – | – | 100 | – | – | – | – | – | – |
| Cc1nc([C@H](C)NC(=O)c2cc(Cl)cc(I)c2)n(-c2ncc(C(=O)N(C)C)s2)n1 [I-76] | 80 | – | 100 | 100 | – | – | – | – | – | – | – | – | – | – |
| CC(NC(=O)c1cc(C(F)(F)F)cc(S(C)(=O)=O)c1)c1ncnn1-c1ncc(C#N)s1 (centres unmarked) [I-82] | 80 | 80 | 90 | 100 | 100 | – | 100 | 100 | – | – | – | – | – | 90 |
| Cc1nc([C@H](C)NC(=O)c2cc(C(F)(F)F)cc(S(C)(=O)=O)c2)n(-c2ncc(C(=O)N(C)C)s2)n1 [I-83] | 80 | – | – | – | 100 | – | 100 | 100 | – | – | – | – | – | – |
| Cc1nc([C@H](C)NC(=O)c2cc(C(F)(F)F)cc(C(F)(F)F)c2)n(-c2ncc(C#N)s2)n1 [I-90] | – | 100 | – | 100 | – | 80 to 100 | – | – | 80 to 100 | – | 90 to 100 | 90 | – | – |
| C[C@H](NC(=O)c1cc(Br)cc(C(C)(C)F)c1)c1ncnn1-c1ncc(C#N)s1 [I-99] | – | 100 | – | 100 | – | 80 to 100 | – | – | 80 to 100 | 80 to 100 | 90 to 100 | 100 | 100 | 100 |
| Cc1nc([C@H](C)NC(=O)c2cc(Br)cc(OC(F)(F)F)c2)n(-c2ncc(C(=O)N(C)CC3CC3)s2)n1 [I-124] | 100 | 100 | 100 | 100 | – | – | – | – | – | – | – | – | 100 | 100 |
| Cc1nc([C@H](C)NC(=O)c2cc(Br)cc(OC(F)(F)F)c2)n(-c2ncc(C(=O)N(C)C(C)C)s2)n1 [I-126] | 80 | 100 | 100 | 100 | – | – | – | – | – | – | – | – | – | – |
